Measurements reported in patent US20250353864A1, “INDAZOLE CONTAINING MACROCYCLES AND THEIR USE” (BLOSSOMHILL THERAPEUTICS, INC., priority 2022, published 2025).

Legend:
Format in all cases: biochemical
[1] = biological target: EGFR Δ746-750/C797S mutant (Homo sapiens (Human), UniProt P00533, C797S/DEL746-750); experiment: HotSpot radiometric kinase assay, EGFR Δ746-750/C797S mutant; settings: 10 μM ATP
Procedure: (§1) Biochemical Assays for Inhibition of Wild-Type and Mutant EGFRs
(§2) Briefly, specific kinase/substrate pairs along with required cofactors were prepared in reaction buffer; 20 mM Hepes pH 7.5, 10 mM […], 1 mM EGTA, 0.02% Brij35, 0.02 mg/ml BSA, 0.1 mM Na3VO4, 2 mM DTT, 1% DMSO. Compounds were delivered into the reaction, followed […] later by addition of a mixture of ATP (Sigma, St. Louis MO) and ^33P ATP (Perkin Elmer, Waltham MA) to a final concentration of 10 μM. Reactions were carried out at room temperature for 120 min, followed by spotting of the reactions onto P81 ion exchange filter paper (Whatman Inc., Piscataway, NJ). Unbound phosphate was removed by extensive washing of filters in 0.75% phosphoric acid. […] IC50 values and curve fits were obtained using Prism (GraphPad Software).

EGFR (D770_N771insNPG) = EGFR (D770_N771insNPG) (Homo sapiens (Human), UniProt P00533, INS770NPG); experiment: HotSpot radiometric kinase assay, EGFR (D770_N771insNPG); settings: 10 μM ATP, read-out: EGFR (Δ770_N771insNPG) IC50
EGFR (D770_N771insNPG), sequence (P00533 other isoform, or with tags, fused parts or gaps del 1-668/ins NPG behind 770 limits assumed): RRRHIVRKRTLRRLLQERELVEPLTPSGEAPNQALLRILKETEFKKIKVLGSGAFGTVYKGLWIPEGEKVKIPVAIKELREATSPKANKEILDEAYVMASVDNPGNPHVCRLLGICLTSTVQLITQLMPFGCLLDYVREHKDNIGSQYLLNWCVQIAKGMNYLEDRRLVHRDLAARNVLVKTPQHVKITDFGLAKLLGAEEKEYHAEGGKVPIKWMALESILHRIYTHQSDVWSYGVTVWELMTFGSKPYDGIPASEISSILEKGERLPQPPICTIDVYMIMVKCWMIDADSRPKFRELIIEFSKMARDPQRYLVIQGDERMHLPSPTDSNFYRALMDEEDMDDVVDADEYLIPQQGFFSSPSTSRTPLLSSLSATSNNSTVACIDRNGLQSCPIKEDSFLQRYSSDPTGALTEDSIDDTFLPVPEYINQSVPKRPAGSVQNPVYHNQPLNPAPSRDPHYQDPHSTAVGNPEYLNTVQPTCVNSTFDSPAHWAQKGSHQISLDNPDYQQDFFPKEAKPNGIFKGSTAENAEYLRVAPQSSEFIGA
Procedure: as §1, §2

EGFR Δ746-750 mutant = EGFR Δ746-750 mutant (Homo sapiens (Human), UniProt P00533, DEL746-750); experiment: HotSpot radiometric kinase assay, EGFR Δ746-750 mutant; settings: 10 μM ATP
EGFR Δ746-750 mutant, sequence (P00533 other isoform, or with tags, fused parts or gaps del 1-668/del 746-750 limits assumed): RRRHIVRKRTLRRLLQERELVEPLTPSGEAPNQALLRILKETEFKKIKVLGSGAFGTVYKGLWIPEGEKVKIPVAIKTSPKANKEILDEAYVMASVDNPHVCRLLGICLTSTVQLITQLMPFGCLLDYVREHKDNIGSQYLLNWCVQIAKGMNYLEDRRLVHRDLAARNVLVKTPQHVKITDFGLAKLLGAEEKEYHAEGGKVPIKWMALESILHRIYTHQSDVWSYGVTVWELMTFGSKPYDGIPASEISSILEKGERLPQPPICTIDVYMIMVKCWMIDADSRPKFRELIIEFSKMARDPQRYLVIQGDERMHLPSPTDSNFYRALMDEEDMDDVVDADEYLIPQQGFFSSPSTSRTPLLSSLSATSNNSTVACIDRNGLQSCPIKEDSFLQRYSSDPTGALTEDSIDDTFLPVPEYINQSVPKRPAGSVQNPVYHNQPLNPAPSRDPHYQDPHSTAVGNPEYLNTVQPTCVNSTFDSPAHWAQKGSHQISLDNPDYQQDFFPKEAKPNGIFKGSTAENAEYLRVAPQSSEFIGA
Procedure: as §1, §2

EGFR L858R mutant = EGFR L858R mutant (Homo sapiens (Human), UniProt P00533, L858R); experiment: HotSpot radiometric kinase assay, EGFR L858R mutant; settings: 10 μM ATP
Procedure: as §1, §2

EGFR WT = EGFR WT (Homo sapiens (Human), UniProt P00533); experiment: HotSpot radiometric kinase assay (Reaction Biology), EGFR WT; settings: 10 μM ATP
EGFR WT, sequence (P00533 25-1210): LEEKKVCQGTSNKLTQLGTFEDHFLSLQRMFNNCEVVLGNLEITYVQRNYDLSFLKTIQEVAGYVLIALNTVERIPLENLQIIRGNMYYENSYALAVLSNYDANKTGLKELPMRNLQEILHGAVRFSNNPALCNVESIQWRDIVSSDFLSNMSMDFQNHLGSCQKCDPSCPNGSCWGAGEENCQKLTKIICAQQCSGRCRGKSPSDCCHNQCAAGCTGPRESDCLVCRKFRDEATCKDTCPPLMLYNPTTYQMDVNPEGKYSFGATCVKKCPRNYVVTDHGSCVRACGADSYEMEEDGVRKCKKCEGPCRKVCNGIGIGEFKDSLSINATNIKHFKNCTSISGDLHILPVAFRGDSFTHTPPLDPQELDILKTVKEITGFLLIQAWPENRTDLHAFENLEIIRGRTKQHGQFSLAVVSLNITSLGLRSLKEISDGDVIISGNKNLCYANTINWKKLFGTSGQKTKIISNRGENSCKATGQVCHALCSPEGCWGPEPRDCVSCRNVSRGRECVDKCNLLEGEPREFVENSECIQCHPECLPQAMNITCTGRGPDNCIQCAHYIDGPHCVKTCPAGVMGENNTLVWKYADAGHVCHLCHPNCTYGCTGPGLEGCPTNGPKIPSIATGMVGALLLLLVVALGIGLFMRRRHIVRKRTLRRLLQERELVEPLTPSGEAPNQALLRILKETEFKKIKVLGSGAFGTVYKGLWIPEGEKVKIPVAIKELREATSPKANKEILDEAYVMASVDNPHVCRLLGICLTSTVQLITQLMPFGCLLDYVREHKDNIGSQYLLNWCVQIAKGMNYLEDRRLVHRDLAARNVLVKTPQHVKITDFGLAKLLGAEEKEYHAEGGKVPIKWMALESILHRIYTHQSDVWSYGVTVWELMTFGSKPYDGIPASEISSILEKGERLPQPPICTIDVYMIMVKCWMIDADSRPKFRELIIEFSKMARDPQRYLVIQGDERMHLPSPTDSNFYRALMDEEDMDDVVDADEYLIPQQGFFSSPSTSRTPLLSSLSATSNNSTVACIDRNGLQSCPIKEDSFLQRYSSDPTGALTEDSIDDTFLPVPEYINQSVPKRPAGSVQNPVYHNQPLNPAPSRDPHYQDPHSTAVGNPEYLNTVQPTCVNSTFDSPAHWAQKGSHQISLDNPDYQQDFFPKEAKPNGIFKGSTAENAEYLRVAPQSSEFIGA
Procedure: as §1, §2

[2] = biological target: EGFR L858R/T790M/C797S mutant (Homo sapiens (Human), UniProt P00533, C797S/L858R/T790M); experiment: HotSpot radiometric kinase assay, EGFR L858R/T790M/C797S mutant; settings: 10 μM ATP
EGFR L858R/T790M/C797S mutant, sequence (P00533 25-1210 T790M/C797S/L858R): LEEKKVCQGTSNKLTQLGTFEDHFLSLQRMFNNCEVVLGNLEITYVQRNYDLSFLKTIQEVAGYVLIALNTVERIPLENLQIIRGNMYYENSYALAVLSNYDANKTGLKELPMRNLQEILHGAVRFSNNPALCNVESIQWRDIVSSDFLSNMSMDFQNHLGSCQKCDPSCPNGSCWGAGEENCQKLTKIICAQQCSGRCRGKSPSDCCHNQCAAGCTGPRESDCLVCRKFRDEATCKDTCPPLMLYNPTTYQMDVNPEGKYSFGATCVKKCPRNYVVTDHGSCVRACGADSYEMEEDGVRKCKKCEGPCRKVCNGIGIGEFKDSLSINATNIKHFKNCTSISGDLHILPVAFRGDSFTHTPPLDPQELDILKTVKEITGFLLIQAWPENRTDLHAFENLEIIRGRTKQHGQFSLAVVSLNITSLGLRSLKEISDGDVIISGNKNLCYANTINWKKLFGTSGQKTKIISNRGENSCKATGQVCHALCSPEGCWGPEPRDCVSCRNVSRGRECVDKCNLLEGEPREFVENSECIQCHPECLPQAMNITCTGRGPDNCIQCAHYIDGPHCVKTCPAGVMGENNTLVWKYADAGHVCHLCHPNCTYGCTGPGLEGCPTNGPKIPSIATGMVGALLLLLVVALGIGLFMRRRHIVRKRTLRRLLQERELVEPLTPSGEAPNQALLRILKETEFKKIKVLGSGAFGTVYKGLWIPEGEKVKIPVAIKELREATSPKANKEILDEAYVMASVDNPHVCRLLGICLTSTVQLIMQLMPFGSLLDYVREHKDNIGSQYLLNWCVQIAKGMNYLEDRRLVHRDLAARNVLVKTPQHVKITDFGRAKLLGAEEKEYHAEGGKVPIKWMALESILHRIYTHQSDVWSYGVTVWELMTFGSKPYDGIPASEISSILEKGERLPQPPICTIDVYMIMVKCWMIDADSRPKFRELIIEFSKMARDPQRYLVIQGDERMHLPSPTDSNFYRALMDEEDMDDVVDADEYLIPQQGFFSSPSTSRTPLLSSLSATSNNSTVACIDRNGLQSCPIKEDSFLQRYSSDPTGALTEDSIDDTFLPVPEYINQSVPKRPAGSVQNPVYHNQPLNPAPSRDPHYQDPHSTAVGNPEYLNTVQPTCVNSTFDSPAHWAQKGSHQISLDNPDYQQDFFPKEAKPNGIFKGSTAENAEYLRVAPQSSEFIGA
Procedure: as §1, §2

EGFR Δ746-750/C797S mutant, sequence (P00533 other isoform, or with tags, fused parts or gaps C797S/del 1-668/del 746-750 limits assumed): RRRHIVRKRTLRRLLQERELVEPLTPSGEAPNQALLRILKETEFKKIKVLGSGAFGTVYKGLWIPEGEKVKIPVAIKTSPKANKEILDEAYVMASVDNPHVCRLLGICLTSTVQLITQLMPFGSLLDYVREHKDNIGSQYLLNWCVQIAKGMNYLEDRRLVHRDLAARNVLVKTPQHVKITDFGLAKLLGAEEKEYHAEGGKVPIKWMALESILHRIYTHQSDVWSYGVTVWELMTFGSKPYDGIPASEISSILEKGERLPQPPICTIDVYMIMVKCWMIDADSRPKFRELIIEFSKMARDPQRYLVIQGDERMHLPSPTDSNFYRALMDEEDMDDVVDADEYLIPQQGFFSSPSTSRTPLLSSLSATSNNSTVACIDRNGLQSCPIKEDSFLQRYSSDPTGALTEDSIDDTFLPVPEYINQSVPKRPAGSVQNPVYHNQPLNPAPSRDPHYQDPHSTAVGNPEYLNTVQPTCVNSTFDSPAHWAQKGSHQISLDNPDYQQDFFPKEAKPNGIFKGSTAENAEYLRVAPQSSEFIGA

SMILES | IC50 [1] [nM] | IC50 (EGFR (D770_N771insNPG)) [nM] | IC50 (EGFR Δ746-750 mutant) [nM] | IC50 (EGFR L858R mutant) [nM] | IC50 (EGFR WT) [nM] | IC50 [2] [nM]
CCOc1nn(CCO)c2c1/C=C/c1n[nH]c3ccc(cc13)-c1cnn(C)c1O[C@H](C)[C@H]1CCCN1C2 (single isomer, unassigned) [compound 241] | 0.31 | 0.18 | 0.13 | – | – | –
Cc1nn(CC(C)(C)O)c2c1/C=C/c1n[nH]c3ccc(cc13)-c1cnn(C)c1OCCCO2 [Example 30, 1-[(17E)-8,16-dimethyl-2,8,11,12-tetrahydro-10H,14H-3,5-etheno[1,5]dioxacyclopentadecino[10,11-c:15,14-c′:6,7-c″]tripyrazol-14-yl]-2-methylpropan-2-ol] | – | 983 | 217 | 268 | 1300 | 36.8
Cc1c2c(nn1CCN1CCCC1)CN(C)C[C@H](C)Oc1c(cnn1C)-c1ccc3[nH]nc(c3c1)/C=C/2 [Example 89, (10S,17E)-8,10,12,16-tetramethyl-15-[2-(pyrrolidin-1-yl)ethyl]-2,10,11,12,13,15-hexahydro-8H-3,5-ethenotripyrazolo[3,4-f:3′,4′-j:4″,3″-n][1,4]oxazacyclopentadecine] | 6.67 | 191 | 19.7 | – | – | –
Cc1nn(C)c2c1/C=C/c1n[nH]c3ccc(cc13)-c1c(C)nn(C)c1OCCN(C)C2 [Example 47, (17E)-6,8,12,14,16-pentamethyl-2,10,11,12,13,14-hexahydro-8H-3,5-ethenotripyrazolo[3,4-f:3′,4′-j:4″,3″- n][1,4]oxazacyclopentadecine] | 944 | > 1000 | 488 | – | – | –
CCc1nn(C)c2c1/C=C/c1n[nH]c3ccc(cc13)-c1cnn(C)c1OCCCO2 [Ex. 10, (17E)-16-ethyl-8,14-dimethyl-2,11,12,14-tetrahydro-8H,10H-3,5-etheno[1,5]dioxacyclopentadecino[10,11-c:15,14-c′:6,7-c″]tripyrazole] | – | 713 | 74.3 | – | – | –
Cc1ccc2c(n1)/C=C/c1n[nH]c3ccc(cc13)-c1cnn(C)c1O[C@@H](C)CCO2 [Ex. 39, (10S,18E)-8,10,16-trimethyl-2,8,11,12-tetrahydro-10H-3,5-ethenodipyrazolo[3′,4′:10,11;4″,3″:14,15] [1,5]dioxacyclopentadecino[7,6-b]pyridine] | – | 1440 | 176 | – | – | –
CC(=O)Cn1nc(C)c2c1OCCCOc1c(cnn1C)-c1ccc3[nH]nc(c3c1)/C=C/2 [Example 31, 1-[(17E)-8,16-dimethyl-2,8,11,12-tetrahydro-10H,14H-3,5-etheno[1,5]dioxacyclopentadecino[10,11-c:15,14-c′:6,7-c″]tripyrazol-14-yl]propan-2-one] | – | 731 | 58.7 | 67.7 | 927 | 4.93
Cc1nn(CCN2CCCC2)c2c1/C=C/c1n[nH]c3ccc(cc13)-c1cnn(C)c1OCCCO2 [Ex. 32, (17E)-8,16-dimethyl-14-[2-(pyrrolidin-1-yl)ethyl]-2,11,12,14-tetrahydro-8H,10H-3,5-etheno[1,5]dioxacyclopentadecino[10,11-c:15,14-c′:6,7-c″ ]tripyrazole] | – | 457 | 155 | 242 | 1260 | 37.3
CNC(=O)c1cnc2c(c1)/C=C/c1n[nH]c3ccc(cc13)-c1cnn(C)c1COCCO2 [Example 3, (18E)-N,8-dimethyl-8,9,11,12-tetrahydro-2H-3,5-ethenodipyrazolo[3′,4′:9,10;4″,3″:13,14] [1,4]dioxacyclopentadecino[5,6-b]pyridine-16-carboxamide] | – | – | – | – | – | 863
Cc1c2c(nn1CCN1CCCC1)OCCCOc1c(cnn1C)-c1ccc3[nH]nc(c3c1)/C=C/2 [Example 34, (17E)-8,16-dimethyl-15-[2-(pyrrolidin-1-yl)ethyl]-2,11,12,15-tetrahydro-8H,10H-3,5-etheno[1,5]dioxacyclopentadecino[10,11-c:15,14-c′:6,7-c″]tripyrazole] | – | 191 | 154 | 114 | 326 | 40.9
Cc1c2c(nn1CCO)OCCCOc1c(cnn1C)-c1ccc3[nH]nc(c3c1)/C=C/2 [Ex. 24, 2-[(17E)-8,16-dimethyl-2,8,11,12-tetrahydro-10H,15H-3,5-etheno[1,5]dioxacyclopentadecino[10,11-c:15,14-c′:6,7-c″]tripyrazol-15-yl]ethan-1-ol] | – | 1770 | 755 | > 1000 | > 1000 | 315
CCOc1nn(CCO)c2c1/C=C/c1n[nH]c3ccc(cc13)-c1cnn(C)c1OC1CCCN(C2)C1C (stereo not drawn) [Example 242, 2-[(19E)-18-ethoxy-8,21-dimethyl-2,10,11,12,13,15-hexahydro-3,5-etheno-10,14-methanotripyrazolo[3,4-h:3′,4′-l:4″,3″-p][1,6]oxazacycloheptadecin-16(8H)-yl]ethan-1-ol] | 40.3 | 304 | 55.5 | – | – | –
Cc1c2c(nn1CC(C)(C)O)OCCCOc1c(cnn1C)-c1ccc3[nH]nc(c3c1)/C=C/2 [Ex. 28, 1-[(17E)-8,16-dimethyl-2,8,11,12-tetrahydro-10H,15H-3,5-etheno[1,5]dioxacyclopentadecino[10,11-c:15,14-c′:6,7-c″ ]tripyrazol-15-yl]-2-methylpropan-2-ol] | – | > 1000 | 819 | 1000 | > 1000 | 578
Cc1nn(C)c2c1/C=C/c1n[nH]c3ccc(cc13)-c1cnn(C)c1CN(C)C[C@H](C)O2 (single isomer, unassigned) [Example 97] | 101 | 304 | 221 | – | – | –
Cc1c2c(nn1C)OCCCOc1c(cnn1C)-c1ccc3[nH]nc(c3c1)/C=C/2 [Ex. 9, (17E)-8,15,16-trimethyl-2,11,12,15-tetrahydro-8H,10H-3,5-etheno[1,5]dioxacyclopentadecino[10,11-c:15,14-c′:6,7-c″]tripyrazole] | – | 945 | 284 | 349 | 1170 | 27.2
Cn1ncc2c1OCCCCOc1ccccc1/C=C/c1n[nH]c3ccc-2cc13 [Ex. 16, (11E)-1-methyl-18,19,20,21-tetrahydro-1H,8H-10,7,4-(ethan[1]yl[1,2]diylidene)pyrazolo[3,4-g][1,6,13,14]benzodioxadiazacyclononad ecine] | – | 521 | 132 | 49.2 | 523 | 48.4
Cc1c2c(nn1CCN1CCCC1)OCCOC(C)c1c(cnn1C)-c1ccc3[nH]nc(c3c1)/C=C/2 (stereo not drawn) [Example 84, (17E)-8,9,16-trimethyl-15-[2-(pyrrolidin-1-yl)ethyl]-2,8,9,11,12,15-hexahydro-3,5-etheno[1,4]dioxacyclopentadecino[11,10-c:15,14-c′:6,7-c″]tripyrazole] | 130 | 551 | 381 | – | – | –
Cc1c2c(nn1[C@H]1CCN(C)C[C@@H]1O)OCCCOc1c(cnn1C)-c1ccc3[nH]nc(c3c1)/C=C/2 (racemic) [Example 83, (rac)-4-[(17E)-8,16-dimethyl-2,8,11,12-tetrahydro-10H,15H-3,5-etheno[1,5]dioxacyclopentadecino[10,11-c:15,14-c′:6,7-c″]tripyrazol-15-yl]-1-methylpiperidin-3-ol] | 31.3 | 55.4 | 34.6 | – | – | –
